Data: patent publication US20080241919A1, “Defined media for pluripotent stem cell culture” (The Burnham Institute of Medical Research, priority 2003, published 2008)

Columns and labels:
[1] = tested on: human embryonic stem cells (hESCs); assay: Medium component requirement assay, hESCs on laminin/collagen-coated plates for seven days; type: cell-based; settings: media that contained only the named growth factor
Experimental: (a) Media containing bFGF, insulin, and ascorbic acid sustain the healthy undifferentiated growth of hESCs on laminin/collagen-coated plates. Insulin (20 μg/ml), transferrin (8 μg/ml), albumin (for example, the commercial product known as AlbuMAXI) (10 mg/ml), and ascorbic acid (50 μg/ml) were added to a base medium that consisted of 100% DMEM/F-12 with 20 ng/ml bFGF, 2 mM L-alanyl-L-glutamine, 1×MEM essential amino acids solution, 1×MEM non-essential amino acids solution, and 100 μM β-mercaptoethanol. The degree of differentiation was judged by morphology of the colonies and Oct-4 expression. […] (red). […] However, if ascorbic acid was omitted from the media [D, H, L] […] White arrows in all panels delineate the edge of an hESC colony. The area delineated by the white square in [A], [E], and [I] indicates the approximate area that is visualized at higher magnification in [B, C], [F, G], and [J, K], respectively. [C], [G], and [K] is the image in [B], [F], and [J], respectively, merged with DAPI staining of their nuclei (blue).
(b) When either bFGF or insulin was omitted from the media, hESC colonies appeared to differentiate completely under the feeder- and serum-free conditions. […] The distinct growth effects of insulin and bFGF were further accentuated in media lacking ascorbic acid [C, F] (“NO Ascorbic Acid”). In the absence of ascorbic acid and in media that contained only insulin as the growth factor [C] (phase) (“NO Ascorbic Acid”), slower growth of the differentiated hESCs was observed (compare [A, B] to [C]). In ascorbic-acid-lacking media that contained bFGF as the only growth factor [F] […] White arrows in all panels delineate the edge of hESC colonies.
Having determined that substantial numbers of undifferentiated hESCs could be maintained over long periods in feeder-free environments using the bFGF-supplemented media described above, the necessity of other components in the medium to maintain hESCs in an undifferentiated state was next examined. “Knockout Serum Replacement” contains insulin, transferrin, ascorbic acid, amino acids, and AlbuMAX (a chromatographically-purified lipid-rich bovine serum albumin [BSA] with low IgG content, but nevertheless a xeno-derived product). Accordingly, whether insulin, transferrin, BSA, and ascorbic acid were essential components was assessed, in combination with bFGF, for maintaining hESCs in an undifferentiated state. The serum replacement components insulin (20 μg/ml), transferrin (8 μg/ml), albumin (AlbuMAX) (10 mg/ml), and ascorbic acid (50 μg/ml) were added to a base medium that consisted of DMEM/F-12 or KO-DMEM with bFGF (20 ng/ml), L-alanyl-L-glutamine or L-glutamine (2 mM), MEM essential amino acids solution (1×), MEM nonessential amino acids solution (1×), and β-mercaptoethanol (100 μM). To assay for the differentiation-forestalling activity of each of these components, undifferentiated hESCs were seeded on laminin/collagen-coated plates and cultivated for seven days in media containing one or more of the individual components. The degree of differentiation of the colonies was judged by defining morphology and Oct-4 expression.
When either bFGF or insulin was omitted from the media, more than 90% of the colonies appeared to differentiate completely within the first passage, as indicated by their differentiated morphology (FIG. 2b, A,B,D,E), their complete loss of Oct-4 expression, and their expression of the cell surface marker SSEA-1 (FIG. 2c, B,C). […] The different effects of insulin and bFGF were accentuated further in media lacking ascorbic acid. In the absence of ascorbic acid and in media containing only insulin, the growth of differentiated hESCs was simply slower (FIG. 2b, C). […] Although albumin and transferrin are not crucial components for sustaining the undifferentiated growth of hESCs, they might abet survival or maintenance of a normal colony shape.

[2] = tested on: acetylated histone H3 and H4, Myc, Tip60 HAT, p300 HAT; assay: Chromatin state immunofluorescence (acetylated H3/H4, Myc, Tip60, p300) in hESCs; type: cell-based, human; settings: named factor omitted from the media
Text: (c) Presence of both bFGF and insulin is essential for maintenance of an acetylated transcriptionally active chromatin state in undifferentiated hESCs. When either bFGF or insulin is omitted from the media, the differentiated hESC colonies express the differentiation-associated cell surface marker SSEA-1 [B, C] […] (green), Myc [E, F] (red), and histone acetyltransferase (HAT) Tip60 [I, K] (green) and p300 [J, K] […] All cells are indicated by DAPI staining of their nuclei (blue).
To discover the minimal essential conditions needed to support the long-term growth of undifferentiated hESCs, morphological analysis was used to assess the developmental stage of hESCs at different times. For these analyses hESCs were grown in a 6- or 12-well plate to maturation (day 6 or 7 after seeding) before being fixed and visualized under a phase contrast microscope. Cellular immunofluorescence was also employed to assess the state of differentiation of hESCs. […] The state of differentiation of hESC was further assessed by generating (via lentiviral-mediated transduction) hESCs carrying a reporter gene (enhanced green fluorescence protein (EGFP)) under control of the Oct-4 promoter. Using these transfected hESCs (carrying Oct-4 driven EGFP), the undifferentiated state of hESCs can be visualized by green fluorescence (indicating Oct-4 expression). […]

bFGF: basic fibroblast growth factor, growth factor added to the defined hESC media
cell morphology in differentiated colonies [1]: elliptically-shaped cells
immunoreactivity to acetylated H3 and H4, Myc, Tip60 HAT, nuclear focal localization of p300 HAT [2]: undetectable or weak immunoreactivity
